Our source for the Ki and Kd values is US8859534B2, “2-carboxamide-7-piperazinyl-benzofuran derivatives” (AstraZeneca AB, priority 2009, dated 2014).

Experiment [1] deals with 5-HT1A receptor (Homo sapiens (Human), UniProt P08908). Description: 5-HT1A receptor competition binding assay (SPA, [3H]-8-OH-DPAT). The settings on record: membranes of CHO cells expressing 5-HT1A receptors; radioligand [3H]-8-OH-DPAT 0.15-0.2 nM. The source says: (§1) Assays that were used to measure affinity of the compounds of the present invention for 5-HT1A and 5-HT1B receptors are described in J. Recept Signal Transduct. Res. 22:483-495 (2002) and Naunyn-Schmiedeberg's Arch Pharmacol. 356:328-334 (1997) and incorporated by reference herein. These assays were be used with some modifications:
(§2) For the binding assay stably transfected chinese hamster ovary (CHO) cell lines expressing 5-HT1A receptors or 5-HT1B receptors were harvested by centrifugation at 300×g for 10 min and resuspended in 10 mM Tris-HCl, 5 mM EDTA at pH 7.4. The cells were pooled, recentrifuged and resuspended before homogenisation using a Dounce homogeniser (“type B”). Cell membranes were centrifuged at 48 000×g for 10 min and then resuspended in harvesting buffer using an Ultra-Turrax T8 (IKA Labortechnik, Germany), aliquots were stored frozen in −70° C.
Frozen membrane preparations were thawed, homogenized with an Ultra-Turrax and mixed with SPA beads (YSI coated WGA, GE Healthcare/Amersham, Buckinghamshire, UK) in assay buffer containing 50 mM Tris-Base, 4 mM MgCl2, 4 mM CaCl2 (only 5-HT1B), 1 mM EDTA, and adjusted to pH 7.4 with HCl. […] The binding assays were performed in 384-well plates in a final volume of 90 μL/well with the following additions: 9 μL binding buffer; 1 μL compound/DMSO/nonspecific; 20 μL radioligand; and 60 μL beads/membrane mixture. Non-specific binding was defined by using 10 μM WAY100635 for 5-HT1A and 10 μM Methiothepin for 5-HT1B. The assay plates were incubated for 4 hours where after the plates are counted in a Wallac 1450 Microbeta Trilux counter (PerkinElmer LifeScience, US) or similar. Data from the experiments were analyzed using a four parameter logistic equation as follows: Y=Bottom+(Top-Bottom)/1+10^(LogEC50-X)nH.

Experiment [2] addresses 5-HT1B receptor (Homo sapiens (Human), UniProt P28222). The experiment in a line: 5-HT1B receptor competition binding assay (SPA, [3H]-GR125743). As to conditions: for Ki: membranes of CHO cells expressing 5-HT1B receptors, radioligand [3H]-GR125743 0.15-0.2 nM.
Source text: as §1, §2
Frozen membrane preparations were thawed, homogenized with an Ultra-Turrax and mixed with SPA beads (YSI coated WGA, GE Healthcare/Amersham, Buckinghamshire, UK) in assay buffer containing 50 mM Tris-Base, 4 mM MgCl2, 4 mM CaCl2 (only 5-HT1B), 1 mM EDTA, and adjusted to pH 7.4 with HCl. The beads/membrane solution, final concentration 100 pM receptors for 5-HT1A, 300 pM receptors for 5-HT1B and 0.5 mg SPA beads/well, was pre-incubated in room temperature with stirring for 30-60 min. […] Five (log interval, 10 μM to 1 nM, final concentration) or ten serial dilutions (½-log interval, 10 μM to 0.32 nM, final concentration) of compounds were prepared in DMSO from 10 mM stock solutions. The binding assays were performed in 384-well plates in a final volume of 90 μL/well with the following additions: 9 μL binding buffer; 1 μL compound/DMSO/nonspecific; 20 μL radioligand; and 60 μL beads/membrane mixture. Non-specific binding was defined by using 10 μM WAY100635 for 5-HT1A and 10 μM Methiothepin for 5-HT1B. The assay plates were incubated for 4 hours where after the plates are counted in a Wallac 1450 Microbeta Trilux counter (PerkinElmer LifeScience, US) or similar. Data from the experiments were analyzed using a four parameter logistic equation as follows: Y=Bottom+(Top-Bottom)/1+10^(LogEC50-X)nH.
• Jerning E., Rosqvist S., Mohell N. (2002) NAD-299 antagonises 5-HT-stimulated and Spiperone-inhibited [^35S]GTPγS binding in cloned 5-HT1A receptors. J Recept Signal Transduct Res 22:483-495. • Doménech T., Beleta J., Palacios J. M. (1997) Characterization of human serotonin 1D and 1B receptors using [^3H]-GR-125743, a novel radiolabelled serotonin 5HT1D/1B receptor antagonist. Naunyn-Schmiedeberg's Arch Pharmacol 356:328-334.

Sequence of 5-HT1A receptor (P08908 whole entry): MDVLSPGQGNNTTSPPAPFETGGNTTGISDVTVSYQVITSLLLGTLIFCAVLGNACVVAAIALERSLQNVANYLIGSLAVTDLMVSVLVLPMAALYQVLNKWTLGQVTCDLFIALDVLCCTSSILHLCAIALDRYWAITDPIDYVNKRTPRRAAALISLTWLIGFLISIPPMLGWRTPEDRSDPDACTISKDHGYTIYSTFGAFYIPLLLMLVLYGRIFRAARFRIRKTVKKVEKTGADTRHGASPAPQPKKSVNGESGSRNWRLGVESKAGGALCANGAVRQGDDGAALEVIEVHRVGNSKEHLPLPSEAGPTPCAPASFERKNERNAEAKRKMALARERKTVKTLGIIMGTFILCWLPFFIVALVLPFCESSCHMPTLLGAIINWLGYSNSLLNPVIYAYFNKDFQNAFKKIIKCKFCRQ
Sequence of 5-HT1B receptor (P28222 whole entry): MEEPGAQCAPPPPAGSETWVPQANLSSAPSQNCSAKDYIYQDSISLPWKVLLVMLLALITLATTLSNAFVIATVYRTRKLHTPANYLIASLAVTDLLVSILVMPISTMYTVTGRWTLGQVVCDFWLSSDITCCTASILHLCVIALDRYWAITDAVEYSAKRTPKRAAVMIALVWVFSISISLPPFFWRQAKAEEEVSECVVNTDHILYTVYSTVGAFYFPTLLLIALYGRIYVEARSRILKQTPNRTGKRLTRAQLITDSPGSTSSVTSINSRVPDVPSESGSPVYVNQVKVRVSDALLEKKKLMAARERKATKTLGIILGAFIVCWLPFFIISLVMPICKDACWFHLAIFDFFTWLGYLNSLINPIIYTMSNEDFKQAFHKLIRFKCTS

Take `O=C(NCc1ccccn1)c1cc2cccc(N3CCN(CCc4ccccn4)CC3)c2o1` [Example 1, 7-(4-(2-(Pyridin-2-yl)ethyl)piperazin-1-yl)-N-(pyridin-2-ylmethyl)benzofuran-2-carboxamide]: the values for the Ki in experiment [1] and in experiment [2] were 1.3 nM and 19 nM, respectively. The corresponding values for `O=C(Nc1ccc(N2CCOCC2)cc1)c1cc2cccc(N3CCN(CCc4ccccn4)CC3)c2o1` [Example 2, N-(4-Morpholinophenyl)-7-(4-(2-(pyridin-2-yl)ethyl)piperazin-1-yl)benzofuran-2-carboxamide] are 1.3 nM and 1.1 nM. The matching figures for `O=C(NC1CCN(c2ccccc2)CC1)c1cc2cccc(N3CCN(CCc4ccccn4)CC3)c2o1` [Example 3, N-(1-Phenylpiperidin-4-yl)-7-(4-(2-(pyridin-2-yl)ethyl)piperazin-1-yl)benzofuran-2-carboxamide]: 0.14 nM and 0.52 nM. The corresponding values for `CS(=O)(=O)c1ccc(CNC(=O)c2cc3cccc(N4CCN(CCc5ccccn5)CC4)c3o2)cc1` [Example 4, N-(4-(Methylsulfonyl)benzyl)-7-(4-(2-(pyridin-2-yl)ethyl)piperazin-1-yl)benzofuran-2-carboxamide] are 0.2 nM and 1.8 nM. In the case of `Cn1cnc(CNC(=O)c2cc3cccc(N4CCN(CCc5ccccn5)CC4)c3o2)c1` [Example 5, N-((1-Methyl-1H-imidazol-4-yl)methyl)-7-(4-(2-(pyridin-2-yl)ethyl)piperazin-1-yl)benzofuran-2-carboxamide], the figures for the Ki in experiment [1] and in experiment [2] were 2.2 nM and 37 nM, respectively.

In turn, `CC(=O)N1CCC(NC(=O)c2cc3cccc(N4CCN(CCc5ccccn5)CC4)c3o2)CC1` [Example 6, N-(1-Acetylpiperidin-4-yl)-7-(4-(2-(pyridin-2-yl)ethyl)piperazin-1-yl)benzofuran-2-carboxamide] gave a Ki in experiment [2] of 82 nM. Consider `CC(NC(=O)c1cc2cccc(N3CCN(CCc4ccccn4)CC3)c2o1)c1ccccn1` (stereo not drawn) [Example 7, N-(1-(Pyridin-2-yl)ethyl)-7-(4-(2-(pyridin-2-yl)ethyl)piperazin-1-yl)benzofuran-2-carboxamide], for which the Ki came out at 0.59 nM in experiment [1] and 9 nM in experiment [2]. The matching figures for `O=C(NC1CCN(c2ncccc2Cl)CC1)c1cc2cccc(N3CCN(CCc4ccccn4)CC3)c2o1` [Example 8, N-(1-(3-Chloropyridin-2-yl)piperidin-4-yl)-7-(4-(2-(pyridin-2-yl)ethyl)piperazin-1-yl)benzofuran-2-carboxamide]: 0.29 nM and 0.28 nM. On to `N#Cc1ccc(CNC(=O)c2cc3cccc(N4CCN(CCc5ccccn5)CC4)c3o2)cc1` [Example 9, N-(4-Cyanobenzyl)-7-(4-(2-(pyridin-2-yl)ethyl)piperazin-1-yl)benzofuran-2-carboxamide], for which, in experiment [1], the Ki stood at 0.44 nM. Take `CN(C)C(=O)c1cc2cccc(N3CCN(CCc4ccccn4)CC3)c2o1` [Example 11, N,N-Dimethyl-7-(4-(2-(pyridin-2-yl)ethyl)piperazin-1-yl)benzofuran-2-carboxamide]: the results for the Ki in experiment [1] and in experiment [2] were 0.16 nM and 2.1 nM, respectively. The corresponding values for `CNC(=O)c1cc2cccc(N3CCN(CCc4ccccn4)CC3)c2o1` [Example 12, N-Methyl-7-(4-(2-(pyridin-2-yl)ethyl)piperazin-1-yl)benzofuran-2-carboxamide] are 0.11 nM and 0.88 nM. Compound `O=C(NC1CC1)c1cc2cccc(N3CCN(CCc4ccccn4)CC3)c2o1` [Example 13, N-Cyclopropyl-7-(4-(2-(pyridin-2-yl)ethyl)piperazin-1-yl)benzofuran-2-carboxamide] displayed a Ki in experiment [2] of 6.5 nM. Turning to `O=C(NC1CC(F)(F)C1)c1cc2cccc(N3CCN(CCc4ccccn4)CC3)c2o1` [Example 14, N-(3,3-Difluorocyclobutyl)-7-(4-(2-(pyridin-2-yl)ethyl)piperazin-1-yl)benzofuran-2-carboxamide], the Ki in experiment [1] was 3.3 nM; in experiment [2] it was 42 nM.

With `O=C(c1cc2cccc(N3CCN(CCc4ccccn4)CC3)c2o1)N1CCC1` [Example 15, Azetidin-1-yl(7-(4-(2-(pyridin-2-yl)ethyl)piperazin-1-yl)benzofuran-2-yl)methanone], the Ki in experiment [1] worked out at 1.4 nM; in experiment [2], 16 nM.

Turning to `O=C(c1cc2cccc(N3CCN(CCc4ccccn4)CC3)c2o1)N1CCCC1` [Example 16, (7-(4-(2-(Pyridin-2-yl)ethyl)piperazin-1-yl)benzofuran-2-yl)(pyrrolidin-1-yl)methanone], the Ki in experiment [1] amounted to 0.78 nM; in experiment [2], 4.4 nM. The matching figures for `CS(=O)(=O)Cc1ccc(CNC(=O)c2cc3cccc(N4CCN(CCc5ccccn5)CC4)c3o2)cc1` [Example 17, N-(4-(Methylsulfonylmethyl)benzyl)-7-(4-(2-(pyridin-2-yl)ethyl)piperazin-1-yl)benzofuran-2-carboxamide]: 2 nM and 3.3 nM. The matching figures for `COc1cccc(CCNC(=O)c2cc3cccc(N4CCN(CCc5ccccn5)CC4)c3o2)c1` [Example 18, N-(3-Methoxyphenethyl)-7-(4-(2-(pyridin-2-yl)ethyl)piperazin-1-yl)benzofuran-2-carboxamide]: 1.3 nM and 0.7 nM. The matching figures for `CN(Cc1cccc(S(C)(=O)=O)c1)C(=O)c1cc2cccc(N3CCN(CCc4ccccn4)CC3)c2o1` [Example 19, N-Methyl-N-(3-(methylsulfonyl)benzyl)-7-(4-(2-(pyridin-2-yl)ethyl)piperazin-1-yl)benzofuran-2-carboxamide]: 0.99 nM and 10 nM. Consider `Cn1cnc(CCNC(=O)c2cc3cccc(N4CCN(CCc5ccccn5)CC4)c3o2)c1` [Example 30, N-(2-(1-Methyl-1H-imidazol-4-yl)ethyl)-7-(4-(2-(pyridin-2-yl)ethyl)piperazin-1-yl)benzofuran-2-carboxamide], for which the Ki in experiment [2] was found to be 17 nM. Same read-out and setting: with `COc1ccnc(CCN2CCN(c3cccc4cc(C(=O)N(C)C)oc34)CC2)c1` [Example 39, 7-(4-(2-(4-Methoxypyridin-2-yl)ethyl)piperazin-1-yl)-N,N-dimethylbenzofuran-2-carboxamide] the figure was 66 nM; with `CN(C)C(=O)c1cc2cccc(N3CCN(CCc4cc(C#N)ccn4)CC3)c2o1` [Example 41, 7-(4-(2-(4-Cyanopyridin-2-yl)ethyl)piperazin-1-yl)-N,N-dimethylbenzofuran-2-carboxamide], 73 nM. `COc1cccnc1CCN1CCN(c2cccc3cc(C(=O)N(C)C)oc23)CC1` [Example 48, 7-(4-(2-(3-Methoxy-2-pyridyl)ethyl)piperazin-1-yl)-N,N-dimethylbenzofuran-2-carboxamide] displayed a Ki in experiment [1] of 0.16 nM. As to `CC(=O)N1CCc2cc(CCN3CCN(c4cccc5cc(C(=O)N6CCC6)oc45)CC3)ccc21` [Example 49, 1-(5-(2-(4-(2-(Azetidine-1-carbonyl)benzofuran-7-yl)piperazin-1-yl)ethyl)indolin-1-yl)ethanone], the affinity in experiment [2] corresponds to a Ki of 14 nM. Consider `COc1ccc(NC(=O)c2ccc(-c3ccncc3)c(C)c2)cc1N1CCN(C)CC1` [[^3H]-GR125743, reference compound], for which the Kd in experiment [2] (5-HT1B receptor, Kd used in the calculation of Ki, read-out: Kd of radioligand, saturation binding studies) is 0.87 nM.

For orientation: Ki means a dissociation constant, usually derived from enzyme kinetics or from competition with a known ligand. Low readings indicate tighter binding, high ones weaker binding.
